Counter-ions that a name gives are not always drawn.
Key:
[1] = target: T1, Human vitronectin receptor (αv β3) (Homo sapiens, UniProt P05106+P06756); assay: Vitronectin adhesion assay (solid phase receptor assay, αvβ3); assay type: binding; details: inhibition of binding of biotinylated human vitronectin (1 nM) to purified receptor; Table I; read-out: AvB3 IC50
T1 construct: Human vitronectin receptor (αv β3) was purified from human placenta; from tissue; host or cells: human placenta
Procedure: (§1) The activity of the compounds of the present invention was tested in the following assays.
Human vitronectin receptor (αv β3) was purified from human placenta as previously described [Pytela et al., Methods in Enzymology, 144:475-489 (1987)]. Human vitronectin was purified from fresh frozen plasma as previously described [Yatohgo et al., Cell Structure and Function, 13:281-292 (1988)]. Biotinylated human vitronectin was prepared by coupling NHS-biotin from Pierce Chemical Company (Rockford, Ill.) to purified vitronectin as previously described [Charo et al., J. Biol. Chem., 266(3):1415-1421 (1991)]. Assay buffer, OPD substrate tablets, and RIA grade BSA were obtained from Sigma (St. Louis, Mo.). Anti-biotin antibody was obtained from Calbiochem (La Jolla, Calif.). Linbro microtiter plates were obtained from Flow Labs (McLean, Va.). ADP reagent was obtained from Sigma (St. Louis, Mo.).
(§2) Solid Phase Receptor Assays
This assay was essentially the same as previously reported [Niiya et al., Blood, 70:475-483 (1987)]. The purified human vitronectin receptor (αv β3) was diluted from stock solutions to […] in Tris-buffered saline containing 1.0 mM Ca^++, Mg^++, and Mn^++, pH 7.4 (TBS^+++). The diluted receptor was immediately transferred to Linbro microtiter plates at 100 μL/well (100 ng receptor/well). The plates were sealed and incubated overnight at 4° C. to allow the receptor to bind to the wells. All remaining steps were at room temperature. The assay plates were emptied and 200 μL, of 1% RIA grade BSA in TBS^+++ (TBS^+++ /BSA) were added to block exposed plastic surfaces. Following a 2 hour incubation, the assay plates were washed with TBS^+++ using a 96 well plate washer. Logarithmic serial dilution of the test compound and controls were made starting at a stock concentration of 2 mM and using 2 nM biotinylated vitronectin in TBS^+++ /BSA as the diluent. This premixing of labeled ligand with test (or control) ligand, and subsequent transfer of 50 μL aliquots to the assay plate was carried out with a CETUS Propette robot; the final concentration of the labeled ligand was 1 nM and the highest concentration of test compound was 1.0×10^-4 M. The competition occurred for two hours after which all wells were washed with a plate washer as before. Affinity purified horseradish peroxidase labeled goat anti-biotin antibody was diluted 1:3000 in TBS^+++ /BSA and 125 μL were added to each well. After 30 minutes, the plates were washed and incubated with OPD/H2 O2 substrate in 100 mM/L Citrate buffer, pH 5.0. The plate was read with a microtiter plate reader at a wavelength of 450 nm and when the maximum-binding control wells reached an absorbance of about 1.0, the final A450 were recorded for analysis. The data were analyzed using a macro written for use with the EXCEL™ spreadsheet program. The mean, standard deviation, and % CV were determined for duplicate concentrations. The mean A450 values were normalized to the mean of four maximum-binding controls (no competitor added) (B-MAX). The normalized values were subjected to a four parameter curve fit algorithm [Rodbard et al., Int.

[2] = target: T2, Human fibrinogen receptor (αIIb β3) (Homo sapiens, UniProt P05106+P08514); assay: Purified IIb/IIIa receptor assay (solid phase receptor assay); details: inhibition of binding of biotinylated human vitronectin (1 nM) to purified receptor; Table I
T2 construct: Human fibrinogen receptor (αIIb β3) was purified from outdated platelets; from tissue; host or cells: human outdated platelets
T2 sequence (P08514 32-887 limits assumed): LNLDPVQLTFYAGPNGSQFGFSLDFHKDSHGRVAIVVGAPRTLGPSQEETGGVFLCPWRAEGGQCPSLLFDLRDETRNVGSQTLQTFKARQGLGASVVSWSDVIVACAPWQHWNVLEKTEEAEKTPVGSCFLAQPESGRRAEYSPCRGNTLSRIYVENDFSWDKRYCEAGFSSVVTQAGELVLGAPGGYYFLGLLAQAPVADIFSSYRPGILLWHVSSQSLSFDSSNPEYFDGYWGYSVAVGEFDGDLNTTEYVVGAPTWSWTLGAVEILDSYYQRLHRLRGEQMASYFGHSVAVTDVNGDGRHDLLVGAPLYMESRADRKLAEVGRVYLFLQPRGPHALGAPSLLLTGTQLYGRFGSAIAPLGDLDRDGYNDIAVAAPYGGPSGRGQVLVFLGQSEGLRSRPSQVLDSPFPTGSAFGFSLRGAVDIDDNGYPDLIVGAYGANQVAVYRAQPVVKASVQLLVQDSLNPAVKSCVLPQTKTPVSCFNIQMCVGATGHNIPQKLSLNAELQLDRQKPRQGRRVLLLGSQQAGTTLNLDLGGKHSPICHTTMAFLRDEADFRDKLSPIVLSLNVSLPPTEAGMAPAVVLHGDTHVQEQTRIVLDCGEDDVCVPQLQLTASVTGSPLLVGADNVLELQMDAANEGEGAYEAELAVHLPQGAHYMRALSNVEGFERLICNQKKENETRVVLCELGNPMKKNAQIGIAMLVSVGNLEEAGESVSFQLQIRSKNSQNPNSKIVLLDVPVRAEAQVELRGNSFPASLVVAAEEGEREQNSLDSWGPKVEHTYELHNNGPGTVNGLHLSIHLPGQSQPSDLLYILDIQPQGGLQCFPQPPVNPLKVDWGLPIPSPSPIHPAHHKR
T2 sequence (P08514 891-1039 limits assumed): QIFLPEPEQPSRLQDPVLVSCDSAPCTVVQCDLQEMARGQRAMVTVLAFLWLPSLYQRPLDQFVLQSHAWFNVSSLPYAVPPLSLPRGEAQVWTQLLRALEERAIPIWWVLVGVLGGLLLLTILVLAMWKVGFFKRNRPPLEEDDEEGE
T2 sequence (P05106 27-788): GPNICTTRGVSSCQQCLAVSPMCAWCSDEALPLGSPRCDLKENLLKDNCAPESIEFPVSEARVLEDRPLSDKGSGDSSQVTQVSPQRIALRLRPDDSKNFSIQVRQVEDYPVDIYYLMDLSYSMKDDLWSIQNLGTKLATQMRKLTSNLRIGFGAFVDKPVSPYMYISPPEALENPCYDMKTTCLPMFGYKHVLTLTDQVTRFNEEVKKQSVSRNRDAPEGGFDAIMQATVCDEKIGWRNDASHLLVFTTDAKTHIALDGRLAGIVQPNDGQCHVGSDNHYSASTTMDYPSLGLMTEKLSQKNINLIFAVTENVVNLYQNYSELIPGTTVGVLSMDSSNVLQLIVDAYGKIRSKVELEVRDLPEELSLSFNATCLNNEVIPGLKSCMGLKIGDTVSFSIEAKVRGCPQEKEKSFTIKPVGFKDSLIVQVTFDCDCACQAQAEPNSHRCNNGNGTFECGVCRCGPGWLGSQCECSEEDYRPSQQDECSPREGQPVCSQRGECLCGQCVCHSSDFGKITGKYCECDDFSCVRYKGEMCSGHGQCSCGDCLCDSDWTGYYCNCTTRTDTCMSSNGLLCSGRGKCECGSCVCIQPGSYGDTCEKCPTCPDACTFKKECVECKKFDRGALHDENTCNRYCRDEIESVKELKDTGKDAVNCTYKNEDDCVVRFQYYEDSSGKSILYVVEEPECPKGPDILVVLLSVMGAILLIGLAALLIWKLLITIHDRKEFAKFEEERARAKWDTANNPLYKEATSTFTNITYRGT
Procedure: as §1
Human fibrinogen receptor (αIIb β3) was purified from outdated platelets. (Pytela, R., Pierschbacher, M. D., Argraves, S., Suzuki, S., and Rouslahti, E. "Arginine-Glycine-Aspartic acid adhesion receptors", Methods in Enzymology 144(1987):475-489.) Human vitronectin was purified from fresh frozen plasma as described in Yatohgo, T., Izumi, M., Kashiwagi, H., and Hayashi, M., "Novel purification of vitronectin from human plasma by heparin affinity chromatography," Cell Structure and Function 13(1988):281-292. Biotinylated human vitronectin was prepared by coupling NHS-biotin from Pierce Chemical Company (Rockford, Ill.) to purified vitronectin as previously described. (Charo, I. F., Nannizzi, L., Phillips, D. R., Hsu, M. A., Scarborough, R. M., "Inhibition of fibrinogen binding to GP IIb/IIIa by a GP IIIa peptide", J. Biol. Chem. 266(3) (1991): 1415-1421.) Assay buffer, OPD substrate tablets, and RIA grade BSA were obtained from Sigma (St. Louis, Mo.). Anti-biotin antibody was obtained from Calbiochem (La Jolla, Calif.). Linbro microtiter plates were obtained from Flow Labs (McLean, Va.). ADP reagent was obtained from Sigma (St. Louis, Mo.).
as §2
This assay is essentially the same reported in Niiya, K., Hodson, E., Bader, R., Byers-Ward, V. Koziol, J. A., Plow, E. F. and Ruggeri, Z. M., "Increased surface expression of the membrane glycoprotein IIb/IIIa complex induced by platelet activation: Relationships to the binding of fibrinogen and platelet aggregation", Blood 70 (1987):475-483. The purified human fibrinogen receptor (αIIb β3) was diluted from stock solutions to 1.0 μg/mL in Tris-buffered saline containing 1.0 mM Ca^++, Mg^++, and Mn^++, pH 7.4 (TBS^+++). The diluted receptor was immediately transferred to Linbro microtiter plates at 100 μL/well (100 ng receptor/well). The plates were sealed and incubated overnight at 4° C. to allow the receptor to bind to the wells. All remaining steps were at room temperature. The assay plates were emptied and 200 μL of 1% RIA grade BSA in TBS^+++ (TBS^+++ /BSA) were added to block exposed plastic surfaces. Following a 2 hour incubation, the assay plates were washed with TBS^+++ using a 96 well plate washer. Logarithmic serial dilution of the test compound and controls were made starting at a stock concentration of 2 mM and using 2 nM biotinylated vitronectin in TBS^+++ /BSA as the diluent. This premixing of labeled ligand with test (or control) ligand, and subsequent transfer of 50 μL aliquots to the assay plate was carried out with a CETUS Propette robot; the final concentration of the labeled ligand was 1 nM and the highest concentration of test compound was 1.0×10^-4 M. The competition occurred for two hours after which all wells were washed with a plate washer as before. Affinity purified horseradish peroxidase labeled goat anti-biotin antibody was diluted 1:3000 in TBS^+++ /BSA and 125 μL were added to each well. After 30 minutes, the plates were washed and incubated with […]/H2 O2 substrate in 100 mM/L citrate buffer, pH 5.0. The plate was read with a microtiter plate reader at a wavelength of 450 nm and when the maximum-binding control wells reached an absorbance of about 1.0, the final A450 were recorded for analysis. The data were analyzed using a macro written for use with the EXCEL™ spreadsheet program. The mean, standard deviation, and % CV were determined for duplicate concentrations. The mean A450 values were normalized to the mean of four maximum-binding controls (no competitor added) (B-MAX). The normalized values were subjected to a four parameter curve fit algorithm, [Robard et al., Int.

T1 sequence (P06756 31-889 limits assumed): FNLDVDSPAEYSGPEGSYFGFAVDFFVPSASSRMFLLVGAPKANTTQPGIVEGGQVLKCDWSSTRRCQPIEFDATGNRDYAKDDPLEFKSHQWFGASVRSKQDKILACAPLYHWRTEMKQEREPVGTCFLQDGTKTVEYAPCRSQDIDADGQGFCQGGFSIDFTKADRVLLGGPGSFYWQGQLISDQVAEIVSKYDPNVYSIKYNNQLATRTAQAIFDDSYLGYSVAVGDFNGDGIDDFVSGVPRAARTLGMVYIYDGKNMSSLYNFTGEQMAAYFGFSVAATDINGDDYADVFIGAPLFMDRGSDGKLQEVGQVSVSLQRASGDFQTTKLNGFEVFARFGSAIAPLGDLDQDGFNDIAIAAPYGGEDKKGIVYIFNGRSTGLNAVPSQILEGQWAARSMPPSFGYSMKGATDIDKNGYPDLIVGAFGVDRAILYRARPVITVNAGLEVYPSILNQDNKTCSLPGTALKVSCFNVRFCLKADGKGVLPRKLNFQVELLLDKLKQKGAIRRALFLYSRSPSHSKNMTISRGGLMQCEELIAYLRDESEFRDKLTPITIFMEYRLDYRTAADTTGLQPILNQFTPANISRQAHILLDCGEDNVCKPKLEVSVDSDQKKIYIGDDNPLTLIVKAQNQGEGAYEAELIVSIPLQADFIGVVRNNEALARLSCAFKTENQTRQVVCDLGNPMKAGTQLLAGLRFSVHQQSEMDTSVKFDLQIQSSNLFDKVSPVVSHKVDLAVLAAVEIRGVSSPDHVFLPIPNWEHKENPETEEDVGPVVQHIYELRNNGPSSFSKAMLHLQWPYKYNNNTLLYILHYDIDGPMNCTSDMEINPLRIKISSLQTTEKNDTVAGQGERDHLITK
T1 sequence (P06756 891-1048 limits assumed): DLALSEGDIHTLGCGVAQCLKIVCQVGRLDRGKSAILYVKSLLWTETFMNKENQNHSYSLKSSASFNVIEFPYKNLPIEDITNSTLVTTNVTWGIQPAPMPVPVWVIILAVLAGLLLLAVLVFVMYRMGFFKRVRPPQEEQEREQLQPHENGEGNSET
T1 sequence (P05106 27-788): as the sequence (P05106 27-788) above

SMILES | IC50 [1] | IC50 [2]
COC(=O)c1cc(NC(=O)c2cccc(NC(=N)N)c2)ccc1/C=C/C(=O)O [Example 37, methyl 5-[[[3-[(aminoiminomethyl)amino]phenyl]carbonyl]amino]-2-(2-carboxyethenyl)benzoate, trifluoroacetate salt] | 32.3 nM | 80 nM
COC(=O)/C=C/c1ccc(NC(=O)c2cccc(NC3=NCCCN3)c2)cc1C(=O)O [Example 40C, 2-[2-(methoxycarbonyl)ethenyl]-5-[[[3-[(1,4,5,6-tetrahydropyrimidin-2-yl)amino]phenyl]carbonyl]amino]benzoic acid, trifluoroacetate salt] | 176 nM | 20400 nM
N=C(N)Nc1cccc(C(=O)Nc2ccc(/C=C/C(=O)O)c(/C=C/C(=O)O)c2)c1 [Example 42, 3-[4-[[[3-[(aminoiminomethyl)amino]phenyl]carbonyl]amino]-2-(2-carboxyethenyl)phenyl]propenoic acid, trifluoroacetate salt] | 7.6 nM | 15.9 nM
N#Cc1cc(NC(=O)c2cccc(NC(=N)N)c2)ccc1/C=C/C(=O)O [Example 44, 3-[4-[[[3-[(aminoiminomethyl)amino]phenyl]carbonyl]amino]-2-cyanophenyl]propenoic acid, trifluoroacetate salt] | 30.2 nM | 36.2 nM
NC(=O)N=C(N)Nc1cccc(C(=O)Nc2ccc(/C=C/C(=O)O)cc2)c1 [Example 52, 3-[4-[[[3-[[amino[(aminocarbonyl)imino)methyl]amino]phenyl]carbonyl]amino]phenyl]propenoic acid, trifluoroacetate salt] | 72.5 nM | 133 nM
N=C(N)Nc1cc(C(=O)Nc2ccc(/C=C/C(=O)O)cc2)cc(C(F)(F)F)c1 [Example 53, 3-[4-[[[3-[(aminoiminomethyl)amino]-5-(trifluoromethyl)-phenyl]carbonyl]amino]phenyl]propenoic acid, trifluoroacetate salt] | 7.89 nM | 232 nM
N=C(N)Nc1cc(C(=O)Nc2ccc(/C=C/C(=O)O)c(Cl)c2)cc(C(F)(F)F)c1 [Example 54, 3-[4-[[[3-[(aminoiminomethyl)amino]-5-(trifluoromethyl)phenyl]carbonyl]amino]-2-chlorophenyl]propenoic acid, trifluoroacetate salt] | 12.5 nM | 686 nM

Stronger by IC50 [1], values ahead:

IC50 [1] | IC50 [2] | SMILES
0.45 nM | 97.2 nM | O=C(O)/C=C/c1ccc(NC(=O)c2cccc(NC3=NCCCN3)c2)cc1C(=O)O [Example 40A, 2-(2-carboxyethenyl)-5-[[[3-[(1,4,5,6-tetrahydropyrimidin-2-yl)amino]phenyl]carbonyl]amino]benzoic acid, trifluoroacetate salt]
5.71 nM | 817 nM | COC(=O)c1cc(NC(=O)c2cccc(NC3=NCCCN3)c2)ccc1/C=C/C(=O)O [Example 40B, methyl 2-(2-carboxyethenyl)-5-[[[3-[(1,4,5,6-tetrahydropyrimidin-2-yl)amino]phenyl]carbonyl]amino]benzoate, trifluoroacetate salt]
6.7 nM | 759 nM | CNC(=O)c1cc(NC(=O)c2cccc(NC3=NCCCN3)c2)ccc1/C=C/C(=O)O [Example 45, 3-[2-[(methylamino)carbonyl]-4-[[[3-[(1,4,5,6-tetrahydropyrimidin-2-yl)amino]phenyl]carbonyl]amino]phenyl]propenoic acid, bis(trifluoroacetate) salt]
7.19 nM | 2600 nM | CCOC(=O)Nc1cc(NC(=O)c2cccc(NC3=NCCCN3)c2)ccc1/C=C/C(=O)O [Example 46, 3-[2-[(ethoxycarbonyl)amino]-4-[[[3-[(1,4,5,6-tetrahydropyrimidin-2-yl)amino]phenyl]carbonyl]amino]phenyl]propenoic acid, trifluoroacetate salt]
2.18 nM | 661 nM | O=C(O)/C=C/c1ccc(NC(=O)c2cccc(NC3=NCCCN3)c2)cc1 [Example 49, 3-[4-[[[3-[(1,4,5,6-tetrahydropyrimidin-2-yl)amino]phenyl]carbonyl]amino]phenyl]propenoic acid, trifluoroacetate salt]
0.43 nM | 772 nM | COc1cc(NC(=O)c2cccc(NC3=NCCCN3)c2)ccc1/C=C/C(=O)O [Example 50, 3-[2-methoxy-4-[[[3-[(1,4,5,6-tetrahydropyrimidin-2-yl)amino]phenyl]carbonyl]amino]phenyl]propenoic acid, trifluoroacetate salt]
3.62 nM | 432 nM | COc1cc(NC(=O)c2cc(NC(=N)N)cc(C(F)(F)F)c2)ccc1/C=C/C(=O)O [Example 55, 3-[4-[[[3-[(aminoiminomethyl)amino]-5-(trifluoromethyl)phenyl]carbonyl]amino]-2-methoxyphenyl]propenoic acid, trifluoroacetate salt]
4.03 nM | 656 nM | O=C(O)/C=C/c1ccc(NC(=O)c2cccc(NC3=NCCCS3)c2)cc1 [Example 56, 3-[4-[[[3-[(5,6-dihydro-4H-1,3-thiazin-2-yl)amino]phenyl]carbonyl]amino]phenyl]propenoic acid, trifluoroacetate salt]

From patent US5852210A, “Cinnamic acid derivatives” (G. D. Searle & Co., priority 1997, dated 1998)
